Measured values taken from PubChem BioAssay (NCI).
Values joined by “and” are separate entries in the source; they are usually repeats but may differ in a detail not shown here. Equal values may be shown once.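 Results reflect a 48-hour exposure of cells in 96-well plates to compound at five concentrations. At the GI50, growth is halved. TGI is the concentration that stops growth completely.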

The compounds below were run on MDA-N (assay: NCI anticancer screen, dose series, 48 h).

Row | SMILES | TGI [µM]
1 | O=C(Nc1ccccc1)c1c(O)[nH]c(=S)[nH]c1=O | 125

These compounds were tested on MDA-MB-435 (assay: NCI anticancer screen, dose series, 48 h).

Row | SMILES | TGI [µM]
2 | O=C(Nc1ccccc1)c1c(O)[nH]c(=S)[nH]c1=O | 46.8

These compounds were tested on KM20L2 colon (assay: NCI anticancer screen, dose series, 48 h).

Row | SMILES | TGI | GI50 [µM]
3 | O=C(CCc1nc(=S)[nH][nH]1)Nc1cc(Cl)c(Cl)cc1Cl | > 100 µM | 
4 | O=C(CCc1nc(=S)[nH][nH]1)Nc1ccc(Cl)c(Cl)c1 | 31.6 µM | 
5 | O=C(Nc1ccccc1)c1c(O)[nH]c(=S)[nH]c1=O | 125 µM and > 250 µM | 87.2
6 | COC(=O)c1ccccc1NC(=O)C(=O)Cc1nc2c3c(ccc2[nH]c1=O)C(=O)c1ccccc1C3=O | > 100 µM | 
7 | COc1cc2cc(OC)c3cc4c(cc3c2c(OC)c1OC)OCO4 | 53.5 µM | 
8 | O=C(CC(=O)c1cccc2ccccc12)C(=O)Nc1ccc(Cl)cc1 | > 100 µM | 
9 | CCCCCCCCCCCCCC(=O)OC(/C=C/C(C)C)C(O)C(O)C(OC)C(=O)NC1CCCCN(C)C1=O (stereo not given) | 7.64 µM and > 49 µM | > 49
10 | CC1(C(=O)O)CCC[C@@]2(C)C1CC[C@@]1(C)c3cocc3CCC21 (stereo not given in full) | > 100 µM | 
11 | CCN(CC)CCSc1c2ccccc2nc2cc(NCC(=O)Nc3ccccc3-c3ccccc3NC(=O)CNc3ccc4c(SCCN(CC)CC)c5ccccc5nc4c3)ccc12 | > 100 µM | 
12 | Nc1ccccc1S(=O)(=O)N(CC(=O)O)c1ccccc1 | > 100 µM | 
13 | O=C(O)CCC(NC(=O)c1ccc(Nc2nc3ccccc3nc2-c2cccs2)cc1)C(=O)O (stereo not given) | > 100 µM | 

What follows are compounds tested on DMS 114 small cell lung (assay: NCI anticancer screen, dose series, 48 h).

Row | SMILES | TGI | GI50 [µM]
14 | O=C(CCc1nc(=S)[nH][nH]1)Nc1cc(Cl)c(Cl)cc1Cl | > 100 µM | 
15 | O=C(CCc1nc(=S)[nH][nH]1)Nc1ccc(Cl)c(Cl)c1 | > 100 µM | 
16 | O=C(Nc1ccccc1)c1c(O)[nH]c(=S)[nH]c1=O | 69 µM | 
17 | COC(=O)c1ccccc1NC(=O)C(=O)Cc1nc2c3c(ccc2[nH]c1=O)C(=O)c1ccccc1C3=O | > 100 µM | 
18 | COc1cc2cc(OC)c3cc4c(cc3c2c(OC)c1OC)OCO4 | > 100 µM | 
19 | O=C(CC(=O)c1cccc2ccccc12)C(=O)Nc1ccc(Cl)cc1 | > 100 µM | 
20 | CCCCCCCCCCCCCC(=O)OC(/C=C/C(C)C)C(O)C(O)C(OC)C(=O)NC1CCCCN(C)C1=O (stereo not given) | 5.44 µM and > 49 µM | > 49
21 | CC1(C(=O)O)CCC[C@@]2(C)C1CC[C@@]1(C)c3cocc3CCC21 (stereo not given in full) | > 100 µM | 
22 | Cc1cc(N(CCC#N)CCC#N)ccc1N=Nc1ccc(S(N)(=O)=O)cc1 | > 100 µM | 
23 | O=C(O)CCC(NC(=O)c1ccc(Nc2nc3ccccc3nc2-c2cccs2)cc1)C(=O)O (stereo not given) | > 100 µM | 

What follows are compounds tested on RXF-631 renal (assay: NCI anticancer screen, dose series, 48 h).

Row | SMILES | TGI | GI50 [µM]
24 | O=C(CCc1nc(=S)[nH][nH]1)Nc1cc(Cl)c(Cl)cc1Cl | > 100 µM | 
25 | O=C(CCc1nc(=S)[nH][nH]1)Nc1ccc(Cl)c(Cl)c1 | > 100 µM | 
26 | COC(=O)c1ccccc1NC(=O)C(=O)Cc1nc2c3c(ccc2[nH]c1=O)C(=O)c1ccccc1C3=O | > 100 µM | 
27 | COc1cc2cc(OC)c3cc4c(cc3c2c(OC)c1OC)OCO4 | > 100 µM | 
28 | O=C(CC(=O)c1cccc2ccccc12)C(=O)Nc1ccc(Cl)cc1 | > 100 µM | 
29 | CCCCCCCCCCCCCC(=O)OC(/C=C/C(C)C)C(O)C(O)C(OC)C(=O)NC1CCCCN(C)C1=O (stereo not given) | 7.52 µM and > 49 µM | > 49
30 | CC1(C(=O)O)CCC[C@@]2(C)C1CC[C@@]1(C)c3cocc3CCC21 (stereo not given in full) | > 100 µM | 
31 | CCN(CC)CCSc1c2ccccc2nc2cc(NCC(=O)Nc3ccccc3-c3ccccc3NC(=O)CNc3ccc4c(SCCN(CC)CC)c5ccccc5nc4c3)ccc12 | > 100 µM | 
32 | Cc1cc(N(CCC#N)CCC#N)ccc1N=Nc1ccc(S(N)(=O)=O)cc1 | > 100 µM | 
33 | Nc1ccccc1S(=O)(=O)N(CC(=O)O)c1ccccc1 | > 100 µM | 
34 | O=C(O)CCC(NC(=O)c1ccc(Nc2nc3ccccc3nc2-c2cccs2)cc1)C(=O)O (stereo not given) | > 100 µM | 

These compounds were tested on SN12K1 renal (assay: NCI anticancer screen, dose series, 48 h).

Row | SMILES | GI50 [µM] | TGI
35 | O=C(Nc1ccccc1)c1c(O)[nH]c(=S)[nH]c1=O | 25.2 | 51.8 µM and 75.1 µM

What follows are compounds tested on DMS 273 small cell lung (assay: NCI anticancer screen, dose series, 48 h).

Row | SMILES | TGI | GI50 [µM]
36 | O=C(CCc1nc(=S)[nH][nH]1)Nc1cc(Cl)c(Cl)cc1Cl | > 100 µM | 
37 | O=C(CCc1nc(=S)[nH][nH]1)Nc1ccc(Cl)c(Cl)c1 | > 100 µM | 
38 | O=C(Nc1ccccc1)c1c(O)[nH]c(=S)[nH]c1=O | 78.9 µM | 
39 | COC(=O)c1ccccc1NC(=O)C(=O)Cc1nc2c3c(ccc2[nH]c1=O)C(=O)c1ccccc1C3=O | 58.1 µM | 
40 | COc1cc2cc(OC)c3cc4c(cc3c2c(OC)c1OC)OCO4 | 35.6 µM | 
41 | O=C(CC(=O)c1cccc2ccccc12)C(=O)Nc1ccc(Cl)cc1 | > 100 µM | 
42 | CCCCCCCCCCCCCC(=O)OC(/C=C/C(C)C)C(O)C(O)C(OC)C(=O)NC1CCCCN(C)C1=O (stereo not given) | 4.98 µM and > 49 µM | > 49
43 | CC1(C(=O)O)CCC[C@@]2(C)C1CC[C@@]1(C)c3cocc3CCC21 (stereo not given in full) | > 100 µM | 
44 | CCN(CC)CCSc1c2ccccc2nc2cc(NCC(=O)Nc3ccccc3-c3ccccc3NC(=O)CNc3ccc4c(SCCN(CC)CC)c5ccccc5nc4c3)ccc12 | > 58.3 µM | 
45 | Cc1cc(N(CCC#N)CCC#N)ccc1N=Nc1ccc(S(N)(=O)=O)cc1 | > 100 µM | 
46 | Nc1ccccc1S(=O)(=O)N(CC(=O)O)c1ccccc1 | > 100 µM | 
47 | O=C(O)CCC(NC(=O)c1ccc(Nc2nc3ccccc3nc2-c2cccs2)cc1)C(=O)O (stereo not given) | > 100 µM | 

The compounds below were run on DLD-1 colon (assay: NCI anticancer screen, dose series, 48 h).

Row | SMILES | TGI | GI50 [µM]
48 | O=C(CCc1nc(=S)[nH][nH]1)Nc1ccc(Cl)c(Cl)c1 | > 100 µM | 
49 | O=C(Nc1ccccc1)c1c(O)[nH]c(=S)[nH]c1=O | 90 µM and > 250 µM | 109
50 | COC(=O)c1ccccc1NC(=O)C(=O)Cc1nc2c3c(ccc2[nH]c1=O)C(=O)c1ccccc1C3=O | > 100 µM | 
51 | COc1cc2cc(OC)c3cc4c(cc3c2c(OC)c1OC)OCO4 | 51.5 µM | 
52 | O=C(CC(=O)c1cccc2ccccc12)C(=O)Nc1ccc(Cl)cc1 | > 100 µM | 
53 | CCCCCCCCCCCCCC(=O)OC(/C=C/C(C)C)C(O)C(O)C(OC)C(=O)NC1CCCCN(C)C1=O (stereo not given) | 6.56 µM and > 49 µM | > 49
54 | CC1(C(=O)O)CCC[C@@]2(C)C1CC[C@@]1(C)c3cocc3CCC21 (stereo not given in full) | > 100 µM | 
55 | CCN(CC)CCSc1c2ccccc2nc2cc(NCC(=O)Nc3ccccc3-c3ccccc3NC(=O)CNc3ccc4c(SCCN(CC)CC)c5ccccc5nc4c3)ccc12 | > 100 µM | 
56 | Cc1cc(N(CCC#N)CCC#N)ccc1N=Nc1ccc(S(N)(=O)=O)cc1 | > 100 µM | 
57 | Nc1ccccc1S(=O)(=O)N(CC(=O)O)c1ccccc1 | > 100 µM | 
58 | O=C(O)CCC(NC(=O)c1ccc(Nc2nc3ccccc3nc2-c2cccs2)cc1)C(=O)O (stereo not given) | > 100 µM | 

Each compound was assayed on HOP-18 NSCLC (assay: NCI anticancer screen, dose series, 48 h).

Row | SMILES | TGI | GI50 [µM]
59 | O=C(CCc1nc(=S)[nH][nH]1)Nc1ccc(Cl)c(Cl)c1 | > 100 µM | 
60 | O=C(Nc1ccccc1)c1c(O)[nH]c(=S)[nH]c1=O | 118 µM and 184 µM | 17.3
61 | COC(=O)c1ccccc1NC(=O)C(=O)Cc1nc2c3c(ccc2[nH]c1=O)C(=O)c1ccccc1C3=O | > 100 µM | 
62 | COc1cc2cc(OC)c3cc4c(cc3c2c(OC)c1OC)OCO4 | > 100 µM | 
63 | O=C(CC(=O)c1cccc2ccccc12)C(=O)Nc1ccc(Cl)cc1 | > 100 µM | 
64 | CCCCCCCCCCCCCC(=O)OC(/C=C/C(C)C)C(O)C(O)C(OC)C(=O)NC1CCCCN(C)C1=O (stereo not given) | 9.84 µM and > 49 µM | 6.44
65 | CC1(C(=O)O)CCC[C@@]2(C)C1CC[C@@]1(C)c3cocc3CCC21 (stereo not given in full) | > 100 µM | 
66 | CCN(CC)CCSc1c2ccccc2nc2cc(NCC(=O)Nc3ccccc3-c3ccccc3NC(=O)CNc3ccc4c(SCCN(CC)CC)c5ccccc5nc4c3)ccc12 | > 100 µM | 
67 | Cc1cc(N(CCC#N)CCC#N)ccc1N=Nc1ccc(S(N)(=O)=O)cc1 | > 100 µM | 
68 | Nc1ccccc1S(=O)(=O)N(CC(=O)O)c1ccccc1 | > 100 µM | 
69 | O=C(O)CCC(NC(=O)c1ccc(Nc2nc3ccccc3nc2-c2cccs2)cc1)C(=O)O (stereo not given) | > 100 µM | 

The compounds below were run on T-47D breast (assay: NCI anticancer screen, dose series, 48 h).

Row | SMILES | TGI [µM]
70 | O=C(Nc1ccccc1)c1c(O)[nH]c(=S)[nH]c1=O | 105
